From ChEMBL document CHEMBL5523725, “Fragment-Based Anti-inflammatory Agent Design and Target Identification: Discovery of AF-45 as an IRAK4 Inhibitor to Treat Ulcerative Colitis and Acute Lung Injury” (J Med Chem, 2024)
The source made the active and inactive calls. The calls are words filed in the database; no cut-off is given here.

Legend:
RAW264.7 [1] = assay: Antiinflammatory activity in LPS-induced mouse RAW264.7 cells assessed as inhibition of IL-6 mRNA transcription pretreated for 2 hrs followed by LPS stimulation and measured after 6 hrs by RT-qPCR analysis; format: functional, cell-based; settings: dose 5-10 µM, time 8.0 hrs
[2] = AUC (0 to t) in male Sprague-Dawley rat at 1 mg/kg, iv administered via tail vein and measured upto 24 hrs; format: ADME, organism-based; settings: in vivo
Mus musculus [3] = assay: Antiinflammatory activity in male C57BL/6 mouse model of DSS-induced ulcerative colitis assessed as reduction in DAI score at 20 mg/kg, po administered for 11 days with subsequent administration of DSS for 8 days; format: functional, organism-based; settings: time 11.0 day
Mus musculus [4] = assay: Antiinflammatory activity in male C57BL/6 mouse model of DSS-induced ulcerative colitis assessed as reduction in colonic structure destruction at 10 to 20 mg/kg, po administered for 11 days with subsequent administration of DSS for 8 days by H and E staining based analysis; format: functional, organism-based; settings: dose 10-20 mg/kg, time 11.0 day
RAW264.7 [5] = assay: Antiinflammatory activity in LPS-induced mouse RAW264.7 cells assessed as inhibition of TNF-alpha mRNA transcription pretreated for 2 hrs followed by LPS stimulation and measured after 6 hrs by RT-qPCR analysis; format: functional, cell-based; settings: dose 5-10 µM, time 8.0 hrs
RAW264.7 [6] = assay: cells; settings: Mus musculus
Description: Antiinflammatory activity in LPS-induced mouse RAW264.7 cells assessed as inhibition of TNF-alpha release pretreated for 30 mins followed by LPS stimulation and measured after 24 hrs by ELISA

[7] = tested on: Tyrosine-protein kinase ABL1 (Homo sapiens), P00519 [T315I]; assay: Inhibition of human ABL […] mutant assessed as residual activity at 10 uM by Eurofins kinase profiler method relative to control
RAW264.7 [8] = assay: Inhibition of NFkappaB signaling pathway in LPS-induced mouse RAW264.7 cells assessed as inhibition of IkappaBalpha degradation by Western blot analysis; format: cell-based; settings: dose 2.5-10 µM
[9] = Stability of compound in simulated intestinal fluid at 10 mg/ml incubated for 8 hrs and measured every 2 hrs hy HPLC analysis; format: ADME; settings: simulated gi fluid
Mus musculus [10] = assay: Antiinflammatory activity in LPS induced C57BL/6 mouse model of acute lung injury assessed as inhibition of IL-6 release in BALF at 20 to 40 mg/kg, ip preadministered for 30 mins followed by LPS administration and measured after 6 hrs by ELISA; format: functional, organism-based; settings: dose 20-40 mg/kg, time 6.5 hrs
RAW264.7 [11] = assay: Inhibition of NFkappaB signaling pathway in LPS-induced mouse RAW264.7 cells assessed as inhibition of p65 phosphorylation by Western blot analysis; format: cell-based; settings: dose 2.5-10 µM
Mus musculus [12] = assay: Antiinflammatory activity in male C57BL/6 mouse model of DSS-induced ulcerative colitis assessed as reduction in TNF-alpha level in serum at 20 mg/kg, po administered for 11 days with subsequent administration of DSS for 8 days by ELISA; format: functional, organism-based; settings: time 11.0 day
Mus musculus [13] = assay: Antiinflammatory activity in LPS induced C57BL/6 mouse model of acute lung injury assessed as inhibition of TNFalpha release in serum at 20 to 40 mg/kg, ip preadministered for 30 mins followed by LPS administration and measured after 6 hrs by ELISA; format: functional, organism-based; settings: dose 20-40 mg/kg, time 6.5 hrs
Mus musculus [14] = assay: Antiinflammatory activity in male C57BL/6 mouse model of DSS-induced ulcerative colitis assessed as preservation of goblet cells at 10 to 20 mg/kg, po administered for 11 days with subsequent administration of DSS for 8 days by H and E staining based analysis; format: functional, organism-based; settings: dose 10-20 mg/kg, time 11.0 day
[15] = Oral bioavailability in male Sprague-Dawley rat at 10 mg/kg measured upto 24 hrs; format: ADME, organism-based; settings: in vivo
Mus musculus [16] = assay: Antiinflammatory activity in male C57BL/6 mouse model of DSS-induced ulcerative colitis assessed as reduction in macrophage infiltration in spleen at 10 to 20 mg/kg, po administered for 11 days with subsequent administration of DSS for 8 days by F4/80 labeling based immunohistochemistry analysis; format: functional, organism-based; settings: dose 10-20 mg/kg, time 11.0 day

AUC(0-t) at 24 h [2]: 3800 ng·h/mL | IC50 (RAW264.7 [6]): 2600 nM | Activity [7]: 70% | Stability [9]: Stable | bioavailability [15]: 28.1%
SMILES: COc1cc2c(O[C@H]3CC[C@@H](N)CC3)ncnc2cc1OCc1ccccc1
Activity (RAW264.7 [1]): Dose-Dependent Effect | Activity (Mus musculus [3]): Active | Activity (Mus musculus [4]): Active | Activity (RAW264.7 [5]): Dose-Dependent Effect | inhibition (RAW264.7 [8]): Dose-Dependent Effect | Activity (Mus musculus [10]): Active | inhibition (RAW264.7 [11]): Dose-Dependent Effect | Activity (Mus musculus [12]): Active | Activity (Mus musculus [13]): Active | Activity (Mus musculus [14]): Active | Activity (Mus musculus [16]): Active
